The values that follow come from PMC5735336, “Microwave-assisted synthesis and antitumor evaluation of a new series of thiazolylcoumarin derivatives” (EXCLI Journal, 2017).

Data set [1] relates to cervical (Hela) cancer cell line. Kind of data set: In vitro antitumor screening, MTT assay, Hela. It is filed as cell-based. To be noted: Homo sapiens, 50% inhibition of cell viability. As for the experimental part: (§1) The new analogs were tested for in vitro antitumor efficacy adopting the reported procedure (Mosmann, 1983[46]; Denizot and Lang, 1986[13]; Gerlier and Thomasset, 1986[21]).
(§2) In vitro antitumor screening of compounds 5a-t was carried out on cervical (Hela) and kidney fibroblast (COS-7) cancer cell lines in accord to MTT assay (Mosmann, 1983[46]; Denizot and Lang, 1986[13]; Gerlier and Thomasset, 1986[21]) and utilizing doxorubicin as a standard drug. The concentrations of the compounds that cause 50% inhibition of cell viability (IC50, µM) were calculated. […]
In vitro antitumor screening
Compounds 5a-t were screened for in vitro antitumor activity against HepG2 (liver), HCT-116 (colon) and MCF-7 (breast) cancer cell lines adopting MTT assa y (Mosmann, 1983; Denizot and Lang, 1986; Gerlier and Thomasset, 1986) and usin g 5- fluorouracil as a reference antitumor agent. Cells were cultured in Roswell Park Memorial Institute (RPM I) 1640 medium wit h 10% fetal bovine serum, penicillin (100 units/mL) and streptomycin (100 µg/mL) at 37 ° C in an atmosphere of 5% CO 2 were added.
(§3) Cells were placed in 96-multiwell microtiter plates (10^4 cells/well), for 24 h rs at 37 °C and in an atmosphere of 5% CO2 before tr eatment with the compounds to allow attachment of the cells to the wall of the plate. The tested compounds were dissolved in DMSO and diluted with phosphate buffer saline (PBS) to obtain different concentrations. Tested compounds of dif-ferent concentrations were added to each well and cells were incubated with the compounds for 48 hrs at 37 °C and in an atmosphere of 5% CO2. All tests were performed in triplicates.
(§4) The treated cells were wash ed with PBS and 100 µL of 3 -(4,5-dimeth ylthiazol-2-yl )-2,5-diphe-n yltetrazolium bromide solution (MTT) (5 mg/m L MTT st ock in PBS diluted to 1 mg/ mL with 10% RPMI-1640 medium) was added. The 9 6 -multiwell plates were read b y microarra y read er Perkinelmer vector 3V multilabel counter model 1420 (Perkinelmer, Boston, MA) for optical densit y at 490 nm (Mosmann, 1983; Denizot and Lang, 1986; Gerlier and Thomasset, 1986).
(§5) The relative percenta ge cell viabilit y was calculate d from the following equation: […]
(§6) The relation between surviving fraction and drug concentration is plotted to get the survival curve for HepG2, HCT-116 and M CF-7 cancer cell lines . […]
(§7) Denizot F, Lang R. Rapid colorimetric assa y for cell growth and survival. Modifications to the tetrazolium dye procedure giving improved sensitivity an d reliability. J Immunol Methods. 1986;89:271-7.
(§8) Gerlier D, Thomasset T. Use of MTT colorimetric assa y to measure cell activation. J Immunol Methods. 1986; […]
(§9) Mosmann T. Rapid colorimetric assa y for cellular growth and survival: Application to proliferation and cytotox- […]
(§10) Oberling C, Gu erin M. The role of viruses in the production of cancer . Ad v Cancer Res. 1954;2:353-423.
(§11) Sheeja KR, Kuttan G, Kuttan R. C ytotox ic and antitumour activit y of Berberin. Amala Res Bull. 1997;17:73-6.
In general terms: Tetrazolium assays rely on reduction of a dye to a coloured formazan, in cell work by metabolically active cells.

In data set [2] the test system is kidney fibroblast (COS-7) cancer cell line. Briefly: In vitro antitumor screening, MTT assay, COS-7. In kind it is cell-based. Conditions: Chlorocebus aethiops, 50% inhibition of cell viability, COS-7 cell line. As for the experimental part:
as §1, §2
In vitro antitumor screening […]
HCT-116 (colon) and MCF-7 (breast) cancer cell lines adopting MTT assa y (Mosmann, 1983; Denizot and Lang, 1986; Gerlier and Thomasset, 1986) and usin g 5- fluorouracil as a reference antitumor agent. Cells were cultured in Roswell Park Memorial Institute (RPM I) 1640 medium wit h 10% fetal bovine serum, penicillin (100 units/mL) and streptomycin (100 µg/mL) at 37 ° C in an atmosphere of 5% CO 2 were added.
as §3, §4, §5, §6, §7, §8, §9, §10, §11

As a reminder, the IC50 is the concentration at which inhibition is half-maximal. The melting point is the temperature of the solid-liquid transition.

The compound `O=c1oc2ccccc2cc1-c1csc(NN=Cc2ccccc2Br)n1` [5a, 3-(2-(2-(2-Bromobenzylidene)hydrazino)thiazol-4-yl)-2H-chromen-2-one] yielded a melting point of 212 to 213 °C. Moreover, in data set [1], the IC50 was greater than 50 µM. For the same compound, in data set [2], the IC50 is greater than 50 µM.

`N#Cc1ccccc1C=NNc1nc(-c2cc3ccccc3oc2=O)cs1` [5b, 3-(2-(2-(2-Cyanobenzylidene)hydrazino)thiazol-4-yl)-2H-chromen-2-one] had a melting point of 219 to 220 °C. Further, the IC50 in data set [1] was greater than 50 µM. For the same compound, the IC50 in data set [2] is greater than 50 µM.

For `N#Cc1cccc(C=NNc2nc(-c3cc4ccccc4oc3=O)cs2)c1` [5c, 3-(2-(2-(3-Cyanobenzylidene)hydrazino)thiazol-4-yl)-2H-chromen-2-one], the melting point was in the range of 224 to 225 °C. Besides, the IC50 in data set [1] is greater than 50 µM. In data set [2], this compound returned an IC50 greater than 50 µM.

In turn, `O=c1oc2ccccc2cc1-c1csc(NN=Cc2ccc(C(F)(F)F)cc2)n1` [5d, 3-(2-(2-(4-(Trifluoromethyl)benzylidene)hydrazino)thiazol-4-yl)-2H-chromen-2-one] had a melting point of 189 to 190 °C. In addition, in data set [1], the IC50 is greater than 50 µM. The compound also registered a 50% inhibitory concentration (IC50) in data set [2] greater than 50 µM.

The compound `Cc1cccc(C=NNc2nc(-c3cc4ccccc4oc3=O)cs2)c1` [5e, 3-(2-(2-(3-Methylbenzylidene)hydrazino)thiazol-4-yl)-2H-chromen-2-one] gave a melting point of 190 to 191 °C. For the same compound, in data set [1], the IC50 was greater than 50 µM. The same compound yielded an IC50 in data set [2] greater than 50 µM.

In turn, `O=c1oc2ccccc2cc1-c1csc(NN=Cc2c(F)cccc2Cl)n1` [5g, 3-(2-(2-(2-Chloro-6-fluorobenzylidene)hydrazino)thiazol-4-yl)-2H-chromen-2-one] gave a melting point of 195 to 196 °C. Besides, the IC50 in data set [1] was greater than 50 µM. The compound further came in with an IC50 in data set [2] greater than 50 µM.

The compound `O=c1oc2ccccc2cc1-c1csc(NN=Cc2ccc(O)c(Br)c2)n1` [5i, 3-(2-(2-(3-Bromo-4-hydroxybenzylidene)hydrazino)thiazol-4-yl)-2H-chromen-2-one] registered a melting point of 182 to 184 °C. In addition, the IC50 in data set [1] was greater than 50 µM. Moreover, in data set [2], the IC50 was greater than 50 µM.

With `Cc1ccc(O)c(C=NNc2nc(-c3cc4ccccc4oc3=O)cs2)c1` [5j, 3-(2-(2-(2-Hydroxy-5-methylbenzylidene)hydrazino)thiazol-4-yl)-2H-chromen-2-one], the melting point was 206 to 207 °C. The IC50 in data set [1] was greater than 50 µM. The IC50 in data set [2] was greater than 50 µM.

With `Cc1cc(C=NNc2nc(-c3cc4ccccc4oc3=O)cs2)ccc1O` [5k, 3-(2-(2-(4-Hydroxy-3-methylbenzylidene)-hydrazino)thiazol-4-yl)-2H-chromen-2-one], the melting point lay in the range of 193 to 194 °C. In data set [1], this compound displayed an IC50 greater than 50 µM. Besides, the half-maximal inhibitory concentration (IC50) in data set [2] was greater than 50 µM.

`COc1ccc(C=NNc2nc(-c3cc4ccccc4oc3=O)cs2)c(OC)c1` [5l, 3-(2-(2-(2,4-Dimethoxybenzylidene)-hydrazino)thiazol-4-yl)-2H-chromen-2-one] gave a melting point of 219 to 220 °C. The compound further showed an IC50 in data set [1] greater than 50 µM. For the same compound, the IC50 in data set [2] is greater than 50 µM.

With `O=c1oc2ccccc2cc1-c1csc(NN=Cc2ccc(-c3ccccc3)cc2)n1` [5n, 3-(2-(2-((1,1'-Biphenyl)-4-ylmethylidene)-hydrazino)thiazol-4-yl)-2H-chromen-2-one], the melting point fell in the range of 198 to 200 °C. This compound also had an IC50 in data set [1] greater than 50 µM. Further, the half-maximal inhibitory concentration (IC50) in data set [2] is greater than 50 µM.

As for `O=c1oc2ccccc2cc1-c1csc(NN=Cc2ccc3ccccc3c2)n1` [5o, 3-(2-(2-(Naphthalen-2-ylmethylidene)hydrazino)thiazol-4-yl)-2H-chromen-2-one], the melting point was in the range of 225 to 227 °C. In data set [1], this compound gave an IC50 greater than 50 µM. In data set [2], this compound showed an IC50 greater than 50 µM.

Turning to `COc1cccc2c1C(=O)c1c(O)c3c(c(O)c1C2=O)C[C@@](O)(C(=O)CO)C[C@@H]3O[C@H]1C[C@H](N)[C@H](O)[C@H](C)O1` [Doxorubicin, doxorubicin, reference compound], the IC50 was determined as 2.05 µM in data set [1] and 3.04 µM in data set [2].
